Legend:
Type in all cases: cell-based
[1] = tested on: TNFα production from peripheral blood mononuclear cells (PBMCs); assay: Activity Assay 7: LPS-induced TNFα secretion from PBMCs (QUANTIKINE immunoassay); conditions: Homo sapiens, PBMC; Concentration 200 nM
Description: We analysed the ability of compounds to inhibit the production of TNFα from peripheral blood mononuclear cells (PBMCs). TNF-α immunoassays were carried out using the QUANTIKINE® Human TNF-α assay kit (R&D systems, Abingdon UK) according to the manufacturer's instructions. […] Compounds were added 1 hour later in volumes of 100 μl at 6× final concentration. Five hours later lipopolysaccharide (LSP, Sigma, Poole, UK) was added in a volume of 10 μl at 60× final concentration. Plates were mixed and left overnight at 37° C. 5% C02. Plates were centrifuged and cell supernatant was transferred to a new plate. The QUANTIKINE® assay reagents and standards were prepared according to the manufacturer instructions. The QUANTIKINE® assay plate was prepared by adding 50 μl of assay diluent RD1F into each well. This was followed by 200 μl of standard or 100 μl of calibrator diluent plus 100 μl cell supernatant; this was incubated for 2 hours at room temperature (RT). The plate was washed using wash buffer 4 times. After the final wash the plate was tapped on clean paper towel to remove all residual buffer. 200 μl of TNF-α conjugate was added to each well and incubated for 1 hour at RT. The plate was then washed as before. The required amount of substrate solution was prepared by adding equal volumes of colour reagents A and B, protecting from light, 200 μl of this mix was added to each well and incubated for 20 mins at RT, protected from light. 50 μl of stop solution was added to each well in the same order as the substrate solution and the plate was read on a Biorad 680 96 well plate reader (Bio-Rad, Hemel Hempstead, UK) at 450 nm with λ correction at 570 nm. TNF-α levels were determined for mean values of duplicate samples using absorbance in nm, calibration zero values were subtracted from all results to correct for the addition of calibrator diluent in the assay.

[2] = tested on: A2780 ovarian cancer cells; assay: Activity Assay 6: CyQuant cell growth inhibition, A2780; conditions: Homo sapiens, 96 h, A2780, 4 days
Description: (§1) We analysed the ability of compounds to inhibit the in vitro growth of human cancer cells. Cell proliferation assays were performed using the CyQuant™ assay system (Molecular Probes, Inc. USA) according to the manufacturer's instructions. MCF7 breast, A2780 ovarian and PC3 and LNCAP prostate cancer cells were plated in 96 well plates, at a density of 1000 cells for MCF7 cells or 5000 cells for M780/PC3/LNCAP cells, in 100 μl of cell culture medium per well. Compounds were added a minimum of 5 hours later, in serial dilutions in cell culture medium, in 100 μl volumes at 2× final concentration. Cell culture medium was removed after 4 (A2780, PC3 or LNCAP cells) or 6 days (MCF7 cells) by inversion of the plate onto blotting paper and cells were gently washed once with 200 μl PBS. Plates were frozen immediately for a minimum of one hour at −80° C. and then thawed. 200 μl of 1× CyQuant cell lysis buffer supplemented with dye, made according to the manufacturer's instruction, was added immediately to each well and incubated at room temperature for 3-5 minutes. Fluorescence was then measured for each well using a Cytofluor II Fluoresence Multiwell Plate Reader and CytoFluor II software with filters at 480 nm for excitation and 520 nm for emission maxima. Cell proliferation was determined for mean values of duplicate samples as percentages relative to untreated cell samples (=100%). Growth inhibition curves were used to derive IC50 values.

MCF7 breast cancer cells = assay: Activity Assay 6: CyQuant cell growth inhibition, MCF7; conditions: Homo sapiens, 144 h, MCF7, 6 days
Description: as §1

[3] = tested on: HDAC responsive SV40 promoter; assay: Activity Assay 2: SV40 promoter-luciferase reporter in MCF7 derived 2.1.1 cells; conditions: approx 16 hours
Description: Method. We generated a stable clone derived from MCF7 cells containing an integrated reporter construct with the SV40 immediate early promoter cloned upstream of the luciferase gene. MCF7 cells were transfected with pGL2-Basic (SV40/luciferase reporter) (Promega, UK) and pcDNA3 (expresses neomycin resistance gene) using Transfast transfection reagent. After 24 hours, cells were collected by trypsinisation and plated at low density. The following day, G418 was added to the growth medium. After ˜21 days, individual drug-resistant colonies were isolated and cultured. […] To test the effects of compound 001, 2.1.1 cells were incubated with various concentrations of compound 001 or an equivalent amount of DMSO as a control. The following day, cells were collected and luciferase activity detected using the Promega luciferase assay system and a TopCount (Perkin-Elmer).
MCF7 derived cells containing a stably integrated SV40 promoter-luciferase reporter plasmid were treated with the indicated concentrations of compound 001, or DMSO as a solvent control. Luciferase activity was determined after approx 16 hours. The data shown are derived from a single experiment performed in duplicate and are representative of multiple experiments.

MCF7 cells = assay: Activity Assay 3: cell cycle distribution and survival by propidium iodide flow cytometry; conditions: MCF7, ~10×IC50 for growth inhibition, 24, 48 or 72 hours
Description: Method; MCF7 cells were incubated with indicated concentrations of compounds, or left untreated as a control, for various times, as detailed in the figure legends. Cells were collected and the proportion of cells in different phases of the cell cycle determined using propidium iodide staining and flow cytometry as previously described (Purohit et al., Int J Ca 85, 584-9 2000). The proportion of cells with <G0/G1 content (pre G0) relative to total cells was calculated first. The proportion of cells in different cell cycle phases (G0/G1, S, G2/M) was calculated as a proportion of all cells in the cell cycle (i.e., total cells minus cells with <G0/G1 content).
MCF7 cells were incubated with the indicated concentrations of compounds (each equivalent to ˜10×IC50 values for growth inhibition), or DMSO as a solvent control, for 24, 48 or 72 hours. The proportion of cells in different phases of the cell cycle was determined by flow cytometry. Data shown are mean values ±SD, derived from two separate experiments, relative to untreated cells which are normalised to 1.

IC50 [2]: 130 nM
IC50 (MCF7 breast cancer cells): 36.6 nM
Structure (SMILES): CC(C)[C@H]1NC(=O)[C@H]2CSSCC/C=C/[C@H](CC(=O)N[C@H](C)C(=O)N2)OC(=O)CNC1=O [Compound 9A, (E)-(1S,7R,10S,21R)-7-isopropyl-21-methyl-2-oxa-12,13-dithia-5,8,20,23-tetraaza-bicyclo[8.7.6]tricos-16-ene-3,6,9,19,22-pentaone]
inhibition at 0.2 µM [1]: 69%
activity of the HDAC responsive SV40 promoter (luciferase activity) [3]: effectively reverses HDAC-mediated repression of the SV40 immediate early promoter
cell cycle distribution and survival (MCF7 cells): induce a predominant G2/M phase arrest and cell death
